From ChEMBL document CHEMBL4011644, “3-Hydroxy-N'-arylidenepropanehydrazonamides with Halo-Substituted Phenanthrene Scaffolds Cure P. berghei Infected Mice When Administered Perorally” (J Med Chem, 2017)
Activity calls are given as the source filed them. The rule behind the calls is not given here.

How the values were obtained:
Plasmodium falciparum [1] = experiment: Gametocytocidal activity against transgenic GFP-fused Plasmodium falciparum NF54 […] stage gametocytes after 72 hrs by Mitotracker Red CMH2XRos staining based confocal microscopic method; type: functional; details: NF54, 72 h
[2] = Drug degradation in Tween 20/ethanol/phosphate buffer at 1 mg/ml at pH 7.5 after 24 hrs by HPLC analysis
Mus musculus = experiment: Toxicity in NMRI mouse infected with Plasmodium berghei assessed as overt toxicity at 50 mg/kg, ip administered at 4, 24, 48, 72 hrs post infection; type: organism-based; details: in vivo
Plasmodium falciparum [3] = experiment: Effect on male gamete formation in transgenic GFP-fused Plasmodium falciparum NF54 mature stage-5 gametocytes at 1 uM after 72 hrs under reduced oxygen tension by Mitotracker Red CMH2XRos staining based confocal microscopic method; type: functional
Plasmodium berghei [4] = experiment: Antiplasmodial activity against Plasmodium berghei infected in NMRI mouse assessed as reduction in parasitemia at 30 mg/kg, po administered at 4, 24, 48, 72 hrs post infection measured on day 4 by Peter's test relative to control; type: functional; parameters: scale not given: the % may be the effect or the level left
Plasmodium falciparum [5] = experiment: Antiplasmodial activity against multidrug-resistant asexual blood stages of Plasmodium falciparum Dd2 after 72 hrs by HRP2-based ELISA; type: functional; details: Dd2, 72 h
Plasmodium falciparum [6] = experiment: Antiplasmodial activity against chloroquine-sensitive asexual blood stages of Plasmodium falciparum 3D7 after 72 hrs by HRP2-based ELISA; type: functional; details: 3D7, 72 h
Plasmodium berghei [7] = experiment: Antiplasmodial activity against Plasmodium berghei infected in NMRI mouse assessed as mean survival time at 30 mg/kg, po administered at 4, 24, 48, 72 hrs post infection by Peter's test (reference value: 6 to 7 day); type: functional
Plasmodium falciparum [8] = experiment: Gametocytocidal activity against transgenic GFP-fused Plasmodium falciparum NF54 early stage gametocytes after 72 hrs by Mitotracker Red CMH2XRos staining based confocal microscopic method; type: functional; details: NF54, 72 h
[9] = Solubility of compound in phosphate buffer at pH 2.5 after 1 hr by HPLC analysis; type: physicochemical; details: pH 2.5, 1 h
HepG2 = experiment: Cytotoxicity against human HepG2 cells by CellTiterGlo assay; type: cell-based
Plasmodium berghei [10] = experiment: Antiplasmodial activity against Plasmodium berghei infected in NMRI mouse assessed as mean survival time at 3 mg/kg, po administered at 4, 24, 48, 72 hrs post infection measured on day 4 by Peter's test (reference value: 6 to 7 day); type: functional
[11] = Chemical stability of compound in tween 20/ethanol/phosphate buffer at 1 mg/ml at pH 7.5 assessed as compound remaining after 6 hrs by HPLC analysis; type: physicochemical; details: read-out: Stability
Plasmodium berghei [12] = experiment: Antiplasmodial activity against Plasmodium berghei infected in NMRI mouse assessed as mean survival time at 10 mg/kg, po administered at 4, 24, 48, 72 hrs post infection measured on day 4 by Peter's test (reference value: 6 to 7 day); type: functional
Plasmodium berghei [13] = experiment: Antiplasmodial activity against Plasmodium berghei infected in NMRI mouse assessed as reduction in parasitemia at 3 mg/kg, po administered at 4, 24, 48, 72 hrs post infection measured on day 4 by Peter's test relative to control; type: functional; parameters: scale not given: the % may be the effect or the level left
Plasmodium falciparum [14] = experiment: Effect on female gamete formation in transgenic GFP-fused Plasmodium falciparum NF54 mature stage-5 gametocytes at 1 uM after 72 hrs under reduced oxygen tension by Mitotracker Red CMH2XRos staining based confocal microscopic method; type: functional
Plasmodium berghei [15] = experiment: Antiplasmodial activity against Plasmodium berghei infected in NMRI mouse assessed as parasite free mouse at 3 mg/kg, po administered at 4, 24, 48, 72 hrs post infection measured on day 4 by Peter's test; type: functional, organism-based
Plasmodium berghei [16] = experiment: Antiplasmodial activity against Plasmodium berghei infected in NMRI mouse assessed as mean survival time at 50 mg/kg, po administered at 4, 24, 48, 72 hrs post infection by Peter's test (reference value: 6 to 7 day); type: functional
Plasmodium berghei [17] = experiment: Antiplasmodial activity against Plasmodium berghei infected in NMRI mouse assessed as reduction in parasitemia at 50 mg/kg, po administered at 4, 24, 48, 72 hrs post infection measured on day 4 post infection by Peter's test relative to control; type: functional; parameters: scale not given: the % may be the effect or the level left
Plasmodium berghei [18] = experiment: Antiplasmodial activity against Plasmodium berghei infected in NMRI mouse assessed as parasite-free mouse at 30 mg/kg, po administered at 4, 24, 48, 72 hrs post infection measured on day 30 by Peter's test; type: functional, organism-based
Plasmodium berghei [19] = experiment: […] activity against GFP-fused Plasmodium berghei liver stage parasites infected in human HepG2-A16-CD81-EGFP cells after 48 hrs by luciferase reporter gene assay; type: functional
[20] = Solubility of compound in phosphate buffer at pH 7.5 after 1 hr by HPLC analysis; type: physicochemical; details: pH 7.5, 1 h
Plasmodium berghei [21] = experiment: Antiplasmodial activity against Plasmodium berghei infected in NMRI mouse assessed as reduction in parasitemia at 10 mg/kg, po administered at 4, 24, 48, 72 hrs post infection measured on day 4 by Peter's test relative to control; type: functional; parameters: scale not given: the % may be the effect or the level left

With N/C(CC(O)c1cc2c(F)cc(F)cc2c2cc(C(F)(F)F)ccc12)=N\N=C\c1ccc(F)cc1 (stereo not drawn) as the compound, how does the IC50 (Plasmodium falciparum [1]) read?
The IC50 was 66 nM.

And the Drug degradation [2]?
Its Drug degradation is 31%.

What about the Activity (Mus musculus) of the same compound?
The Activity was “Non-Toxic”.

What about the Activity (Plasmodium falciparum [3]) of the same compound?
The Activity was “inactive”.

What about the Activity (Plasmodium berghei [4]) of the same compound?
Its Activity is 99.4%.

What about the IC50 (Plasmodium falciparum [5]) of the same compound?
Its IC50 is 2.9 nM.

And the IC50 (Plasmodium falciparum [6])?
Its IC50 is 2.3 nM.

What about the MST (Plasmodium berghei [7]) of the same compound?
The MST was 25.7 days.

What about the IC50 (Plasmodium falciparum [8]) of the same compound?
The IC50 was 200 nM.

What about the solubility [9] of the same compound?
The solubility was “Insoluble”.

What about the IC50 (HepG2) of the same compound?
Its IC50 is 27700 nM.

What about the MST (Plasmodium berghei [10]) of the same compound?
The MST was 7 days.

What about the remaining at 6 h, 1 mg/ml [11] of the same compound?
Its remaining at 6 h, 1 mg/ml is over 95%.

And the MST (Plasmodium berghei [12])?
Its MST is 24.7 days.

And the Activity (Plasmodium berghei [13])?
The Activity was 78%.

What about the Activity (Plasmodium falciparum [14]) of the same compound?
Its Activity is “inactive”.

And the Activity (Plasmodium berghei [15])?
The Activity was “inactive”.

What about the MST (Plasmodium berghei [16]) of the same compound?
Its MST is 22 days.

What about the Activity (Plasmodium berghei [17]) of the same compound?
Its Activity is 99.9%.

And the Activity (Plasmodium berghei [18])?
Its Activity is “inactive”.

And the IC50 (Plasmodium berghei [19])?
The IC50 was 6900 nM.

And the solubility [20]?
The solubility was “Insoluble”.

What about the Activity (Plasmodium berghei [21]) of the same compound?
Its Activity is 99.5%.
